Assay: xn = mol fraction of the nth substance listed
Details: 101 kPa, Liquid

CN1CCCC1=O [N-methylpyrrolidone] + c1ccccc1
Details | mass density [kg/m3]
293.15 K, x2 = 0 | 1032.66
293.15 K, x2 = 0.0434 | 1027.48
293.15 K, x2 = 0.1023 | 1020.3
293.15 K, x2 = 0.1625 | 1012.78
293.15 K, x2 = 0.2237 | 1004.93
293.15 K, x2 = 0.2834 | 997.06
293.15 K, x2 = 0.3457 | 988.6
293.15 K, x2 = 0.4015 | 980.8
293.15 K, x2 = 0.4865 | 968.47
293.15 K, x2 = 0.5421 | 960.08
293.15 K, x2 = 0.6154 | 948.61
293.15 K, x2 = 0.6854 | 937.17
293.15 K, x2 = 0.7549 | 925.31
293.15 K, x2 = 0.8254 | 912.73
293.15 K, x2 = 0.9002 | 898.74
293.15 K, x2 = 0.9772 | 883.6
303.15 K, x2 = 0 | 1023.42
303.15 K, x2 = 0.0444 | 1018.04
303.15 K, x2 = 0.1165 | 1009.11
303.15 K, x2 = 0.1854 | 1000.32
303.15 K, x2 = 0.2539 | 991.32
303.15 K, x2 = 0.3296 | 981.02
303.15 K, x2 = 0.3965 | 971.6
303.15 K, x2 = 0.4653 | 961.58
303.15 K, x2 = 0.5362 | 950.85
303.15 K, x2 = 0.6033 | 940.29
303.15 K, x2 = 0.6798 | 927.73
303.15 K, x2 = 0.7451 | 916.54
303.15 K, x2 = 0.8125 | 904.52
303.15 K, x2 = 0.8847 | 891.05
303.15 K, x2 = 0.9245 | 883.36
303.15 K, x2 = 0.9799 | 872.31
313.15 K, x2 = 0 | 1014.27
313.15 K, x2 = 0.0454 | 1008.7
313.15 K, x2 = 0.1054 | 1001.17
313.15 K, x2 = 0.1765 | 992
313.15 K, x2 = 0.2365 | 984.05
313.15 K, x2 = 0.2965 | 975.88
313.15 K, x2 = 0.3654 | 966.2
313.15 K, x2 = 0.4368 | 955.82
313.15 K, x2 = 0.5012 | 946.12
313.15 K, x2 = 0.5687 | 935.58
313.15 K, x2 = 0.6358 | 924.71
313.15 K, x2 = 0.6954 | 914.69
313.15 K, x2 = 0.7658 | 902.39
313.15 K, x2 = 0.8326 | 890.21
313.15 K, x2 = 0.9036 | 876.72
313.15 K, x2 = 0.9684 | 863.87
323.15 K, x2 = 0 | 1005.62
323.15 K, x2 = 0.0521 | 999.09
323.15 K, x2 = 0.1245 | 989.78
323.15 K, x2 = 0.1987 | 979.96
323.15 K, x2 = 0.2541 | 972.41
323.15 K, x2 = 0.3214 | 962.98
323.15 K, x2 = 0.3854 | 953.74
323.15 K, x2 = 0.4215 | 948.4
323.15 K, x2 = 0.4854 | 938.69
323.15 K, x2 = 0.5411 | 929.98
323.15 K, x2 = 0.6124 | 918.42
323.15 K, x2 = 0.6854 | 906.11
323.15 K, x2 = 0.7214 | 899.84
323.15 K, x2 = 0.7984 | 885.99
323.15 K, x2 = 0.8598 | 874.48
323.15 K, x2 = 0.9249 | 861.81
333.15 K, x2 = 0 | 996.28
333.15 K, x2 = 0.0451 | 990.55
333.15 K, x2 = 0.1025 | 983.11
333.15 K, x2 = 0.1632 | 975.06
333.15 K, x2 = 0.2302 | 965.93
333.15 K, x2 = 0.2987 | 956.32
333.15 K, x2 = 0.3512 | 948.74
333.15 K, x2 = 0.4215 | 938.29
333.15 K, x2 = 0.4865 | 928.31
333.15 K, x2 = 0.5521 | 917.9
333.15 K, x2 = 0.6213 | 906.51
333.15 K, x2 = 0.6895 | 894.85
333.15 K, x2 = 0.7451 | 885.02
333.15 K, x2 = 0.8145 | 872.3
333.15 K, x2 = 0.8865 | 858.55
333.15 K, x2 = 0.9654 | 842.8
343.15 K, x2 = 0 | 987.39
343.15 K, x2 = 0.0414 | 982.03
343.15 K, x2 = 0.1154 | 972.25
343.15 K, x2 = 0.1874 | 962.43
343.15 K, x2 = 0.2564 | 952.76
343.15 K, x2 = 0.3248 | 942.88
343.15 K, x2 = 0.3965 | 932.18
343.15 K, x2 = 0.4685 | 921.08
343.15 K, x2 = 0.5384 | 909.92
343.15 K, x2 = 0.5968 | 900.27
343.15 K, x2 = 0.6622 | 889.13
343.15 K, x2 = 0.7321 | 876.77
343.15 K, x2 = 0.7954 | 865.17
343.15 K, x2 = 0.8541 | 854.04
343.15 K, x2 = 0.9123 | 842.63
343.15 K, x2 = 0.9799 | 828.9

CCc1ccccc1 [ethylbenzene] + CN1CCCC1=O
Details | mass density [kg/m3]
293.15 K, x1 = 0.0854 | 1016.73
293.15 K, x1 = 0.1254 | 1009.4
293.15 K, x1 = 0.1847 | 998.68
293.15 K, x1 = 0.2475 | 987.56
293.15 K, x1 = 0.3021 | 978.07
293.15 K, x1 = 0.3654 | 967.23
293.15 K, x1 = 0.4251 | 957.16
293.15 K, x1 = 0.4985 | 944.94
293.15 K, x1 = 0.5471 | 936.92
293.15 K, x1 = 0.6012 | 928.06
293.15 K, x1 = 0.6621 | 918.17
293.15 K, x1 = 0.7214 | 908.66
293.15 K, x1 = 0.7954 | 897.01
293.15 K, x1 = 0.8451 | 889.37
293.15 K, x1 = 0.9214 | 878.1
293.15 K, x1 = 1 | 867.28
303.15 K, x1 = 0.0458 | 1014.88
303.15 K, x1 = 0.1012 | 1004.66
303.15 K, x1 = 0.1685 | 992.46
303.15 K, x1 = 0.2314 | 981.29
303.15 K, x1 = 0.2958 | 970.09
303.15 K, x1 = 0.3541 | 960.11
303.15 K, x1 = 0.4217 | 948.71
303.15 K, x1 = 0.4851 | 938.16
303.15 K, x1 = 0.5471 | 927.94
303.15 K, x1 = 0.6012 | 919.09
303.15 K, x1 = 0.6874 | 905.16
303.15 K, x1 = 0.7451 | 895.97
303.15 K, x1 = 0.8124 | 885.46
303.15 K, x1 = 0.8954 | 872.96
303.15 K, x1 = 0.9654 | 863.01
303.15 K, x1 = 1 | 858.36
313.15 K, x1 = 0.0547 | 1004.11
313.15 K, x1 = 0.1245 | 991.32
313.15 K, x1 = 0.1874 | 980.01
313.15 K, x1 = 0.2451 | 969.83
313.15 K, x1 = 0.3012 | 960.1
313.15 K, x1 = 0.3621 | 949.71
313.15 K, x1 = 0.4321 | 937.95
313.15 K, x1 = 0.4985 | 926.93
313.15 K, x1 = 0.5621 | 916.47
313.15 K, x1 = 0.6251 | 906.2
313.15 K, x1 = 0.6958 | 894.8
313.15 K, x1 = 0.7589 | 884.77
313.15 K, x1 = 0.8245 | 874.57
313.15 K, x1 = 0.9014 | 863.06
313.15 K, x1 = 0.9789 | 852.18
313.15 K, x1 = 1 | 849.38
323.15 K, x1 = 0.0654 | 993.44
323.15 K, x1 = 0.1123 | 984.81
323.15 K, x1 = 0.1785 | 972.82
323.15 K, x1 = 0.2356 | 962.68
323.15 K, x1 = 0.2959 | 952.18
323.15 K, x1 = 0.3575 | 941.62
323.15 K, x1 = 0.4154 | 931.85
323.15 K, x1 = 0.4825 | 920.66
323.15 K, x1 = 0.5415 | 910.92
323.15 K, x1 = 0.606 | 900.36
323.15 K, x1 = 0.6784 | 888.62
323.15 K, x1 = 0.7451 | 877.94
323.15 K, x1 = 0.8214 | 866
323.15 K, x1 = 0.8954 | 854.87
323.15 K, x1 = 0.9548 | 846.41
323.15 K, x1 = 1 | 840.35
333.15 K, x1 = 0.0687 | 983.52
333.15 K, x1 = 0.1254 | 973.12
333.15 K, x1 = 0.1874 | 961.93
333.15 K, x1 = 0.2454 | 951.67
333.15 K, x1 = 0.3021 | 941.83
333.15 K, x1 = 0.3654 | 931.02
333.15 K, x1 = 0.4251 | 920.99
333.15 K, x1 = 0.4784 | 912.12
333.15 K, x1 = 0.5241 | 904.57
333.15 K, x1 = 0.5864 | 894.36
333.15 K, x1 = 0.6478 | 884.37
333.15 K, x1 = 0.7012 | 875.76
333.15 K, x1 = 0.7898 | 861.71
333.15 K, x1 = 0.8457 | 853.12
333.15 K, x1 = 0.9254 | 841.39
333.15 K, x1 = 1 | 831.25
343.15 K, x1 = 0.0784 | 972.86
343.15 K, x1 = 0.1354 | 962.43
343.15 K, x1 = 0.1985 | 951.09
343.15 K, x1 = 0.2415 | 943.48
343.15 K, x1 = 0.3021 | 932.94
343.15 K, x1 = 0.3654 | 922.12
343.15 K, x1 = 0.4251 | 912.06
343.15 K, x1 = 0.4984 | 899.86
343.15 K, x1 = 0.5641 | 889.03
343.15 K, x1 = 0.6214 | 879.66
343.15 K, x1 = 0.6985 | 867.19
343.15 K, x1 = 0.7515 | 858.72
343.15 K, x1 = 0.8125 | 849.17
343.15 K, x1 = 0.8895 | 837.51
343.15 K, x1 = 0.9784 | 824.96
343.15 K, x1 = 1 | 822.11
353.15 K, x1 = 0.0874 | 962.38
353.15 K, x1 = 0.1421 | 952.35
353.15 K, x1 = 0.2032 | 941.34
353.15 K, x1 = 0.2874 | 926.52
353.15 K, x1 = 0.3451 | 916.58
353.15 K, x1 = 0.4021 | 906.9
353.15 K, x1 = 0.487 | 892.69
353.15 K, x1 = 0.5474 | 882.68
353.15 K, x1 = 0.612 | 872.06
353.15 K, x1 = 0.6874 | 859.79
353.15 K, x1 = 0.7458 | 850.42
353.15 K, x1 = 0.8211 | 838.6
353.15 K, x1 = 0.8954 | 827.4
353.15 K, x1 = 0.9445 | 820.37
353.15 K, x1 = 0.98 | 815.52
353.15 K, x1 = 1 | 812.9
